{"source": "patent US6071907A", "about": "“Tricyclic compounds useful as FPT inhibitors” (Schering Corporation, priority 1997, dated 2000)", "biological_target": "T1, partially purified rat brain farnesyl protein transferase (FPT) (Rattus norvegicus, UniProt Q02293+Q04631)", "T1 construct": "partially purified rat brain farnesyl protein transferase (FPT); from tissue; host or cells: rat brain (partially purified enzyme)", "experiment": "FPT IC50 (inhibition of farnesyl protein transferase, in vitro enzyme assay); Ras-CVLS farnesylation", "format": "biochemical", "experimental": "In vitro enzyme assays: FPT IC50 (inhibition of farnesyl protein transferase, in vitro enzyme assay) are determined by the methods disclosed in […] or WO 95/10516.", "key": {"[1]": {"details": "in vitro enzyme assay, Ras-CVLS farnesylation, partially purified rat brain FPT, read-out: FPT IC50"}}, "note": "Read-outs that look alike come from different tables or passages of the source.", "data": [{"smiles": "CCC1Cc2cc(Cl)cc(Cl)c2C(N2CCN(C(=O)Cc3cc[n+]([O-])cc3)CC2)c2ncc(Br)cc21", "note": "(racemic) [Example 3]", "values": [{"measurement": "IC50", "result": 6, "unit": "nM"}]}, {"smiles": "CCC(=O)N1CCC(CC(=O)N2CCC([C@H]3c4ncc(Br)cc4CCc4cc(Cl)cc(Br)c43)CC2)CC1", "note": "[Example 5, (+)-4-(3,10-Dibromo-8-chloro-6,11-dihydro-5H-benzo[5,6]cyclohepta[1,2-b]pyridin-11 (R)-yl)-1-[(1-oxopropyl-4-piperidinyl)acetyl]piperidine]", "values": [{"measurement": "IC50", "setting": "[1]", "result": 6.8, "unit": "nM"}]}, {"smiles": "O=C(CN1CC[S+]([O-])CC1)N1CCC(C2c3ccc(Cl)c(Br)c3CCc3cc(Br)cnc32)CC1", "note": "(centres unmarked) [Example 2, 4-[8-Chloro-3,7-dibromo-6,11-dihydro-5H-benzo[5,6]cyclohepta[1,2-b]pyridin-11-yl]-1-(4-thiomorpholinylacetyl)piperidine S-oxide]", "values": [{"measurement": "IC50", "setting": "[1]", "result": 6.8, "unit": "nM"}]}, {"smiles": "O=C(CN1CCSCC1)N1CCC(C2c3ccc(Cl)c(Br)c3CCc3cc(Br)cnc32)CC1", "note": "(centres unmarked) [Example 1, 4-[8-Chloro-3,7-dibromo-5,6-dihydro-11H-benzo [5, 6]cyclohepta[1,2-b]pyridin-11-yl]-1-(4-thiomorpholinylacetyl)piperidine]", "values": [{"measurement": "IC50", "setting": "[1]", "result": 8.9, "unit": "nM"}]}, {"smiles": "O=C(CN1C(=O)c2ccccc2C1=O)N1CCC(C2c3ncc(Br)cc3CCc3cc(Cl)cc(Cl)c32)CC1", "note": "(single isomer, unassigned; (+)) [Example 4, (+)-4-(3-bromo-8,10-dichloro-6,11-dihydro-5H-benzo[5,6]cyclohepta[1,2-b]pyridin-11-yl)-1-[2-(1,3-dihydro-1,3-dioxo-2H-isoindol-2-yl)-1-oxoethyl]piperidine]", "values": [{"measurement": "IC50", "setting": "[1]", "result": 18.6, "unit": "nM"}]}]}
